Results on 14 compounds are retold here after patent publication US11266147B2, “Fungicidal oxadiazoles” (Bayer Aktiengesellschaft, priority 2017, dated 2022).

Data set [1] relates to Colletotrichum lindemuthianum. As to the kind of experiment: Colletotrichum lindemuthianum in vitro cell test. Particulars: 144 h, liquid culture with spores, 6 days incubation, read-out: efficacy (inhibition of fungal growth); for inhibition at 4 ppm: 4 ppm of active ingredient; for inhibition at 20 ppm: 20 ppm of active ingredient. It is filed as cell-based. As for the experimental part: Example E: Colletotrichum lindemuthianum In Vitro Cell Test • Solvent: DMSO • Culture medium: 14.6 g anhydrous D-glucose (VWR), 7.1 g Mycological Peptone (Oxoid), 1.4 g granulated Yeast Extract (Merck), QSP 1 liter • Inoculum: spores suspension Fungicides were solubilized in DMSO and the solution used to prepare the required range of concentrations. The final concentration of DMSO used in the assay was ≤[…]1%. A spore suspension of C. lindemuthianum was prepared and diluted to the desired spore density. Fungicides were evaluated for their ability to inhibit spores germination and mycelium growth in liquid culture assay. The compounds were added in the desired concentration to the culture medium with spores. After 6 days incubation, fungi-toxicity of compounds was determined by spectrometric measurement of mycelium growth. Inhibition of fungal growth was determined by comparing the absorbance values in wells containing the fungicides with the absorbance in control wells without fungicides.

Data set [2] in a line: LogP by HPLC on reversed phase columns (EEC directive 79/831 Annex V.A8). It is filed as physicochemical. The settings on record: method [a]: LC-UV, acidic range, 0.1% formic acid in water and acetonitrile, linear gradient 10% to 95% acetonitrile. As for the experimental part:
[table] If more than one LogP value is available within the same method, all the values are given and separated by “+”. Calibration was done with straight-chain alkan2-ones (with 3 to 16 carbon atoms) with known LogP values (measurement of LogP values using retention times with linear interpolation between successive alkanones). Lambda-max-values were determined using UV-spectra from 200 nm to 400 nm and the peak values of the chromatographic signals.

In general, inhibition refers to the share of the control response that was lost under treatment. In general, chromatographic logP refers to a lipophilicity value derived from retention on a column. A low value points to a more hydrophilic compound. `FC(F)(F)c1nc(-c2ccc(Nc3ncccn3)cc2)no1` [Compound I-05, N-{4-[5-(trifluoromethyl)-1,2,4-oxadiazol-3-yl]phenyl}pyrimidin-2-amine]: in data set [1], the inhibition at 4 ppm lay in the range of 80 to 89% and the inhibition at 20 ppm lay in the range of 90 to 100%. In data set [2] (reversed phase HPLC column), this compound registered a chromatographic logP of 3.5.
Turning to `FC(F)(F)c1nc(-c2cnc(N[C@@H]3CCOc4ccccc43)nc2)no1` [Compound I-01, N-[(4R)-3,4-dihydro-2H-chromen-4-yl]-5-[5-(trifluoromethyl)-1,2,4-oxadiazol-3-yl]pyrimidin-2-amine], in data set [1], the inhibition at 4 ppm fell in the range of 70 to 79% and the inhibition at 20 ppm lay within 80 to 89%.
The like results for `Fc1ccccc1Nc1ncc(-c2noc(C(F)(F)F)n2)cn1` [Compound I-04, N-(2-Fluorophenyl)-5-[5-(trifluoromethyl)-1,2,4-oxadiazol-3-yl]pyrimidin-2-amine] were, in that order, 80 to 89% and 80 to 89%.
In the case of `COc1ccccc1Nc1ncc(-c2noc(C(F)(F)Cl)n2)cn1` [Compound I-78], in data set [2], the LogP was 4.41^[a].
For the compound `FC(F)(F)c1nc(-c2cnc(NC3Cc4ccccc4C3)nc2)no1` [Compound I-26], the LogP in data set [2] was 4.27^[a].
In the case of `FC(F)(Cl)c1nc(-c2cnc(Nc3ccc4ncccc4c3)nc2)no1` [Compound I-90], the LogP in data set [2] was 2.13^[a].
Still for that read-out and setting: under `FC(F)(Cl)c1nc(-c2cnc(NC3CCOCC3)nc2)no1` [Compound I-15] stands 2.76^[a].
In the case of `Fc1ccc(Nc2ncc(-c3noc(C(F)(F)F)n3)cn2)c(F)c1` [Compound I-42], the LogP in data set [2] was 3.70^[a].
The same measure, in the same setting: under `Fc1cccc(Nc2ncc(-c3noc(C(F)(F)Cl)n3)cn2)c1` [Compound I-76] stands 4.18^[a]; under `FC(F)(F)c1nc(-c2cnc(NC3CCOC3)nc2)no1` (stereo not drawn) [Compound I-10], 2.35^[a].
Turning to `CN(c1ncc(-c2noc(C(F)(F)Cl)n2)cn1)C1CCCC1` [Compound I-12], in data set [2], the LogP was 5.42^[a].
Same read-out and setting: under `FC(F)(F)c1nc(-c2cnc(Nc3cccc(Cl)c3)nc2)no1` [Compound I-46] stands 4.34^[a]; under `FC(F)(F)c1nc(-c2cnc(NC3CCCC3)nc2)no1` [Compound I-08], 3.83^[a]; under `FC(F)(F)c1nc(-c2cnc(Nc3ccccc3Cl)nc2)no1` [Compound I-47], 4.20^[a].
